Test results reported in patent US8404679B2, “Pyrrolidine derivatives as NK2 receptor antagonists” (Hoffmann-La Roche Inc., priority 2008, dated 2013).

Biological target: T1, human NK2 receptor (Homo sapiens, UniProt P21452)
T1 construct: purchased Perkin Elmer biosignal Inc. 6110510
T1 sequence (P21452 1-398): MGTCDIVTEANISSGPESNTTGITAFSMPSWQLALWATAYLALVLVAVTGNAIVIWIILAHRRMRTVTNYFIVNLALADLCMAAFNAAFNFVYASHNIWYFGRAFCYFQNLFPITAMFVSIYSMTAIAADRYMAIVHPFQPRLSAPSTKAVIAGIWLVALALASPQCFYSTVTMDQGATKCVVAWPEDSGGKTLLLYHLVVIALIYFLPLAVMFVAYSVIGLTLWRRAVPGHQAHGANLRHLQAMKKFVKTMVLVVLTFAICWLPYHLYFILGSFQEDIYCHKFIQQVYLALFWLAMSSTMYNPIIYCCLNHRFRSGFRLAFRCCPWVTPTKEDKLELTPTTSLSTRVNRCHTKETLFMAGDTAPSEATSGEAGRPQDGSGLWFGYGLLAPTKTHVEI
Assay: [3H]SR48968 competition binding assay
Details: [3H]SR48968 displacement, membranes of CHO cells stably expressing recombinant human NK2 receptor; Ki from IC50 by Cheng-Prussoff
Description: [^3H]SR48968 Competition Binding Assay
hNK2 receptor binding experiment were performed using [^3H]SR48968 (Catalog No. TRK398, specific activity: 27.0 Ci/mmol, Amersham, GE Healthcare UK limited, Buckinghamshire, UK) and membrane isolated from CHO cells stably expressing recombinant human NK2 receptor (product No. 6110510, Perkin Elmer biosignal Inc., Shelton, Conn., USA). After thawing, the membrane homogenates were centrifuged at 48,000×g for 10 min at 4° C., the pellets were resuspended in the 50 mM Tris-HCl, 3 mM MnCl2, 4 μg/mL Chymostatin, 0.04% BSA binding buffer at pH 7.4 to a final assay concentration of 6.5 μg protein/well. For inhibition experiments, membranes were incubated with [^3H]SR48968 at a concentration equal to KD value of radioligand and 10 concentrations of the inhibitory compound (0.0003-10 μM) (in a total reaction volume of 500 μl) for 75 min at room temperature (RT). At the end of the incubation, membranes were filtered onto unitfilter (96-well white microplate with bonded GF/C filter preincubated 1 h in 0.3% polyethylenimine, Packard BioScience, Meriden, Conn.) with a Filtermate 196 harvester (Packard BioScience) and washed 4 times with ice-cold 50 mM Tris-HCl, pH 7.4 buffer. Nonspecific binding was measured in the presence of 10 μM 1-{2-[(R)-3-(3,4-dichloro-phenyl)-1-(3,4,5-trimethoxy-benzoyl)-pyrrolidin-3-yl]-ethyl}-4-phenyl-piperidine-4-carboxylic acid amide. The radioactivity on the filter was counted (5 min) on a Packard Top-count microplate scintillation counter with quenching correction after addition of 45 μl of microscint 40 (Canberra Packard S. A., Zürich, Switzerland) and shaking for 1 h. Inhibition curves were fitted according to the Hill equation: y=100/(1+(x/IC50)^nH), where nH=slope factor using Excel-fit 4 software (Microsoft). IC50 values were derived from the inhibition curve and the affinity constant (Ki) values were calculated using the Cheng-Prussoff equation Ki=IC50/(1+[L]/KD) where [L] was the concentration of radioligand and KD was its dissociation constant at the receptor, derived from the saturation isotherm.

| SMILES | Ki |
| --- | --- |
| CN(C(=O)c1ccc(-n2cccc2)cc1)[C@@H]1CN(C(=O)N2CCN(S(C)(=O)=O)CC2)C[C@H]1c1ccc(Cl)c(Cl)c1 (racemic) [Example 30, rac-N-[(3S,4R)-4-(3,4-Dichloro-phenyl)-1-(4-methanesulfonyl-piperazine-1-carbonyl)-pyrrolidin-3-yl]-N-methyl-4-pyrrol-1-yl-benzamide] | 4.59 nM |
| CN(C(=O)c1ccc2c(c1)CCO2)[C@@H]1CN(C(=O)N2CCN(S(C)(=O)=O)CC2)C[C@H]1c1ccc(Cl)c(Cl)c1 (racemic) [Example 31, rac-2,3-Dihydro-benzofuran-5-carboxylic acid [(3S,4R)-4-(3,4-dichloro-phenyl)-1-(4-methanesulfonyl-piperazine-1-carbonyl)-pyrrolidin-3-yl]-methyl-amide] | 14.8 nM |
| CN(C(=O)c1ccc(F)c(Cl)c1)[C@@H]1CN(C(=O)N2CCN(S(C)(=O)=O)CC2)C[C@H]1c1ccc(Cl)c(Cl)c1 (racemic) [Example 32, rac-3-Chloro-N-[(3S,4R)-4-(3,4-dichloro-phenyl)-1-(4-methanesulfonyl-piperazine-1-carbonyl)-pyrrolidin-3-yl]-4-fluoro-N-methyl-benzamide] | 4.57 nM |
| COc1ccc(C(=O)N(C)[C@@H]2CN(C(=O)N3CCN(S(C)(=O)=O)CC3)C[C@H]2c2ccc(Cl)c(Cl)c2)cc1Cl (racemic) [Example 33, rac-3-Chloro-N-[(3S,4R)-4-(3,4-dichloro-phenyl)-1-(4-methanesulfonyl-piperazine-1-carbonyl)-pyrrolidin-3-yl]-4-methoxy-N-methyl-benzamide] | 8.57 nM |
| CN(C(=O)c1ccc2nccnc2c1)[C@@H]1CN(C(=O)N2CCN(S(C)(=O)=O)CC2)C[C@H]1c1ccc(Cl)c(Cl)c1 (racemic) [Example 34, rac-Quinoxaline-6-carboxylic acid [(3S,4R)-4-(3,4-dichloro-phenyl)-1-(4-methanesulfonyl-piperazine-1-carbonyl)-pyrrolidin-3-yl]-methyl-amide] | 76.7 nM |
| CC(C#N)c1cccc(C(=O)N(C)[C@@H]2CN(C(=O)N3CCN(S(C)(=O)=O)CC3)C[C@H]2c2ccc(Cl)c(Cl)c2)c1 (mixture of isomers) [Example 35, rac-3-(Cyano-methyl-methyl)-N-[(3S,4R)-4-(3,4-dichloro-phenyl)-1-(4-methanesulfonyl-piperazine-1-carbonyl)-pyrrolidin-3-yl]-N-methyl-benzamide] | 28.5 nM |
| COc1ccc(C(=O)N(C)[C@@H]2CN(C(=O)N3CCN(S(C)(=O)=O)CC3)C[C@H]2c2ccc(Cl)c(Cl)c2)cc1 (racemic) [Example 37, rac-N-[(3S,4R)-4-(3,4-Dichloro-phenyl)-1-(4-methanesulfonyl-piperazine-1-carbonyl)-pyrrolidin-3-yl]-4-methoxy-N-methyl-benzamide] | 8.89 nM |
| CN(C(=O)c1cc(C(F)(F)F)ccc1F)[C@@H]1CN(C(=O)N2CCN(S(C)(=O)=O)CC2)C[C@H]1c1ccc(Cl)c(Cl)c1 (racemic) [Example 38, rac-N-[(3S,4R)-4-(3,4-Dichloro-phenyl)-1-(4-methanesulfonyl-piperazine-1-carbonyl)-pyrrolidin-3-yl]-2-fluoro-N-methyl-5-trifluoromethyl-benzamide] | 9.5 nM |
| CCN(C(=O)c1ccc(OC)c(C(F)(F)F)c1)[C@@H]1CN(C(=O)N2CCN(S(C)(=O)=O)CC2)C[C@H]1c1ccc(Cl)c(Cl)c1 (racemic) [Example 39, rac-N-[(3S,4R)-4-(3,4-Dichloro-phenyl)-1-(4-methanesulfonyl-piperazine-1-carbonyl)-pyrrolidin-3-yl]-N-ethyl-4-methoxy-3-trifluoromethyl-benzamide] | 68.3 nM |
| COc1ccc(C(=O)N2C[C@@H](N(C)C(=O)c3ccc(OC)c(C(F)(F)F)c3)[C@H](c3ccc(Cl)c(Cl)c3)C2)cc1 (racemic) [Example 44, rac-N-[(3S,4R)-4-(3,4-Dichloro-phenyl)-1-(4-methoxy-benzoyl)-pyrrolidin-3-yl]-4-methoxy-N-methyl-3-trifluoromethyl-benzamide] | 4.24 nM |
| COc1ccc(C(=O)N(C)[C@@H]2CN(C(=O)c3cccc(C#N)c3)C[C@H]2c2ccc(Cl)c(Cl)c2)cc1C(F)(F)F (racemic) [Example 47, rac-N-[(3S,4R)-1-(3-Cyano-benzoyl)-4-(3,4-dichloro-phenyl)-pyrrolidin-3-yl]-4-methoxy-N-methyl-3-trifluoromethyl-benzamide] | 3.65 nM |
| COc1ccc(C(=O)N(C)[C@@H]2CN(C(=O)c3ccc4occc4c3)C[C@H]2c2ccc(Cl)c(Cl)c2)cc1C(F)(F)F (racemic) [Example 48, rac-N-[(3S,4R)-1-(Benzofuran-5-carbonyl)-4-(3,4-dichloro-phenyl)-pyrrolidin-3-yl]-4-methoxy-N-methyl-3-trifluoromethyl-benzamide] | 5.36 nM |

The remaining compounds from weak to strong by Ki, led by results:

| Ki | SMILES |
| --- | --- |
| 3.59 nM | CN(C(=O)c1ccc(F)c(C(F)(F)F)c1)[C@@H]1CN(C(=O)N2CCN(S(C)(=O)=O)CC2)C[C@H]1c1ccc(Cl)c(Cl)c1 (racemic) [Example 36, rac-N-[(3S,4R)-4-(3,4-Dichloro-phenyl)-1-(4-methanesulfonyl-piperazine-1-carbonyl)-pyrrolidin-3-yl]-4-fluoro-N-methyl-3-trifluoromethyl-benzamide] |
| 3.26 nM | COc1ccc(C(=O)N(C)[C@@H]2CN(C(=O)c3ccc(F)cc3)C[C@H]2c2ccc(Cl)c(Cl)c2)cc1C(F)(F)F (racemic) [Example 46, rac-N-[(3S,4R)-4-(3,4-Dichloro-phenyl)-1-(4-fluoro-benzoyl)-pyrrolidin-3-yl]-4-methoxy-N-methyl-3-trifluoromethyl-benzamide] |
| 2.98 nM | COc1ccc(C(=O)N(C)[C@@H]2CN(C(=O)c3ccc(N(C)C)cc3)C[C@H]2c2ccc(Cl)c(Cl)c2)cc1C(F)(F)F (racemic) [Example 45, rac-N-[(3S,4R)-4-(3,4-Dichloro-phenyl)-1-(4-dimethylamino-benzoyl)-pyrrolidin-3-yl]-4-methoxy-N-methyl-3-trifluoromethyl-benzamide] |
| 2.53 nM | COc1ccc(C(=O)N(C)[C@@H]2CN(C(=O)c3cc(S(C)(=O)=O)ccc3F)C[C@H]2c2ccc(Cl)c(Cl)c2)cc1C(F)(F)F (racemic) [Example 49, rac-N-[(3S,4R)-4-(3,4-Dichloro-phenyl)-1-(2-fluoro-5-methanesulfonyl-benzoyl)-pyrrolidin-3-yl]-4-methoxy-N-methyl-3-trifluoromethyl-benzamide] |
| 2.04 nM | CN(C(=O)c1ccc2c(c1)OC(F)(F)O2)[C@@H]1CN(C(=O)N2CCN(S(C)(=O)=O)CC2)C[C@H]1c1ccc(Cl)c(Cl)c1 (racemic) [Example 28, rac-2,2-Difluoro-benzo[1,3]dioxole-5-carboxylic acid [(3S,4R)-4-(3,4-dichloro-phenyl)-1-(4-methanesulfonyl-piperazine-1-carbonyl)-pyrrolidin-3-yl]-methyl-amide] |
| 1.45 nM | COc1ccc(C(=O)N(C)[C@@H]2CN(C(=O)c3ccc(C#N)cc3)C[C@H]2c2ccc(Cl)c(Cl)c2)cc1C(F)(F)F (racemic) [Example 41, rac-N-[(3S,4R)-1-(4-Cyano-benzoyl)-4-(3,4-dichloro-phenyl)-pyrrolidin-3-yl]-4-methoxy-N-methyl-3-trifluoromethyl-benzamide] |
